Data taken from ChEMBL document CHEMBL4507324 (2021).

Assays:
Conditions in all cases: Compound concentration 100.0 nM
[1] = molecular target: Protein-tyrosine kinase 6 (Homo sapiens) (UniProt Q13882)
[2] = molecular target: Bone morphogenetic protein receptor type-2 (Homo sapiens) (UniProt Q13873)
[3] = molecular target: Ephrin type-B receptor 2 (Homo sapiens) (UniProt P29323)
[4] = molecular target: Dual specificity protein kinase CLK1 (Homo sapiens) (UniProt P49759)
[5] = molecular target: Phosphatidylinositol 4-kinase beta (Homo sapiens) (UniProt Q9UBF8)
[6] = molecular target: Mitogen-activated protein kinase kinase kinase 7 (Homo sapiens) (UniProt O43318)
[7] = molecular target: Serine/threonine-protein kinase pim-3 (Homo sapiens) (UniProt Q86V86)
[8] = tested on: Receptor-type tyrosine-protein kinase FLT3 (Homo sapiens), P36888 [D835V]
[9] = molecular target: Cyclin-dependent kinase 16 (Homo sapiens) (UniProt Q00536)
[10] = molecular target: Serine/threonine-protein kinase Sgk1 (Homo sapiens) (UniProt O00141)
[11] = molecular target: Ribosomal protein S6 kinase alpha-5 (Homo sapiens) (UniProt O75582)
[12] = molecular target: MAP kinase-activated protein kinase 5 (Homo sapiens) (UniProt Q8IW41)
[13] = molecular target: Vascular endothelial growth factor receptor 1 (Homo sapiens) (UniProt P17948)
[14] = molecular target: Cyclin-dependent kinase 9 (Homo sapiens) (UniProt P50750)
[15] = tested on: Receptor-type tyrosine-protein kinase FLT3 (Homo sapiens), P36888 [D835H]
[16] = molecular target: Receptor-type tyrosine-protein kinase FLT3 (Homo sapiens) (UniProt P36888)
[17] = molecular target: Phosphorylase b kinase regulatory subunit alpha, liver isoform (Homo sapiens) (UniProt P46019)
[18] = molecular target: TRAF2 and NCK-interacting protein kinase (Homo sapiens) (UniProt Q9UKE5)
[19] = molecular target: Death-associated protein kinase 1 (Homo sapiens) (UniProt P53355)
[20] = tested on: Tyrosine-protein kinase ABL1 (Homo sapiens), P00519 [E255K]
[21] = molecular target: Mitogen-activated protein kinase kinase kinase 10 (Homo sapiens) (UniProt Q02779)
[22] = molecular target: Serine/threonine-protein kinase Chk2 (Homo sapiens, UniProt O96017)
[23] = molecular target: Rhodopsin kinase GRK1 (Homo sapiens) (UniProt Q15835)
[24] = molecular target: Mitogen-activated protein kinase kinase kinase 20 (Homo sapiens) (UniProt Q9NYL2)
[25] = molecular target: Calcium/calmodulin-dependent protein kinase kinase 1 (Homo sapiens) (UniProt Q8N5S9)
[26] = molecular target: Receptor-interacting serine/threonine-protein kinase 1 (Homo sapiens) (UniProt Q13546)
[27] = molecular target: Glycogen synthase kinase-3 alpha (Homo sapiens) (UniProt P49840)
[28] = molecular target: RAC-gamma serine/threonine-protein kinase (Homo sapiens) (UniProt Q9Y243)
[29] = tested on: Receptor-type tyrosine-protein kinase FLT3 (Homo sapiens), P36888 [K663Q]
[30] = molecular target: Rhodopsin kinase GRK7 (Homo sapiens) (UniProt Q8WTQ7)
[31] = molecular target: Ephrin type-B receptor 6 (Homo sapiens) (UniProt O15197)
[32] = molecular target: Ribosomal protein S6 kinase alpha-1 (Homo sapiens) (UniProt Q15418)
[33] = tested on: Mast/stem cell growth factor receptor Kit (Homo sapiens), P10721 [V559D,V654A]
[34] = molecular target: G protein-coupled receptor kinase 3 (Homo sapiens) (UniProt P35626)
[35] = molecular target: Interleukin-1 receptor-associated kinase 3 (Homo sapiens) (UniProt Q9Y616)
[36] = molecular target: Casein kinase I isoform alpha (Homo sapiens) (UniProt P48729)
[37] = molecular target: MAP/microtubule affinity-regulating kinase 4 (Homo sapiens) (UniProt Q96L34)
[38] = molecular target: Phosphatidylinositol 5-phosphate 4-kinase type-2 gamma (Homo sapiens) (UniProt Q8TBX8)
[39] = molecular target: TGF-beta receptor type-1 (Homo sapiens) (UniProt P36897)
[40] = molecular target: Cyclin-dependent kinase-like 3 (Homo sapiens) (UniProt Q8IVW4)
[41] = molecular target: Serine/threonine-protein kinase Sgk2 (Homo sapiens) (UniProt Q9HBY8)
[42] = molecular target: Serine/threonine-protein kinase mTOR (Homo sapiens) (UniProt P42345)
[43] = molecular target: Mitogen-activated protein kinase kinase kinase 1 (Homo sapiens) (UniProt Q13233)
[44] = molecular target: Dual specificity testis-specific protein kinase 1 (Homo sapiens) (UniProt Q15569)
[45] = molecular target: Mitogen-activated protein kinase 1 (Homo sapiens) (UniProt P28482)

Rhodopsin kinase GRK7 (Homo sapiens), sequence (Q8WTQ7 whole entry): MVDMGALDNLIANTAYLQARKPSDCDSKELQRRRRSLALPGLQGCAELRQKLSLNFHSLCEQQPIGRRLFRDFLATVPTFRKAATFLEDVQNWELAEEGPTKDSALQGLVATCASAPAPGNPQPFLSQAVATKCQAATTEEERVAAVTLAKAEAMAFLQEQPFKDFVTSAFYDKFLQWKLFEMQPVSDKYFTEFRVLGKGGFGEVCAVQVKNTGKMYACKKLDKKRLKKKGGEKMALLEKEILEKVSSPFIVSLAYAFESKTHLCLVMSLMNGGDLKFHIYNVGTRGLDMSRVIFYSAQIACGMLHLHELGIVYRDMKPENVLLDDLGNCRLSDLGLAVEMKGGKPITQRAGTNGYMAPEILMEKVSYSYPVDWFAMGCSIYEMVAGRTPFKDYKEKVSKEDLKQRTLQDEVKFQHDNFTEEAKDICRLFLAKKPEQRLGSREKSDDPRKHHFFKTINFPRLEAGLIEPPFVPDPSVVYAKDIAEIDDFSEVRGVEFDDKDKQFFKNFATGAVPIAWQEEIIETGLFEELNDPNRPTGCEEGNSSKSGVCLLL
Phosphorylase b kinase regulatory subunit alpha, liver isoform (Homo sapiens), sequence (P46019 whole entry, canonical isoform): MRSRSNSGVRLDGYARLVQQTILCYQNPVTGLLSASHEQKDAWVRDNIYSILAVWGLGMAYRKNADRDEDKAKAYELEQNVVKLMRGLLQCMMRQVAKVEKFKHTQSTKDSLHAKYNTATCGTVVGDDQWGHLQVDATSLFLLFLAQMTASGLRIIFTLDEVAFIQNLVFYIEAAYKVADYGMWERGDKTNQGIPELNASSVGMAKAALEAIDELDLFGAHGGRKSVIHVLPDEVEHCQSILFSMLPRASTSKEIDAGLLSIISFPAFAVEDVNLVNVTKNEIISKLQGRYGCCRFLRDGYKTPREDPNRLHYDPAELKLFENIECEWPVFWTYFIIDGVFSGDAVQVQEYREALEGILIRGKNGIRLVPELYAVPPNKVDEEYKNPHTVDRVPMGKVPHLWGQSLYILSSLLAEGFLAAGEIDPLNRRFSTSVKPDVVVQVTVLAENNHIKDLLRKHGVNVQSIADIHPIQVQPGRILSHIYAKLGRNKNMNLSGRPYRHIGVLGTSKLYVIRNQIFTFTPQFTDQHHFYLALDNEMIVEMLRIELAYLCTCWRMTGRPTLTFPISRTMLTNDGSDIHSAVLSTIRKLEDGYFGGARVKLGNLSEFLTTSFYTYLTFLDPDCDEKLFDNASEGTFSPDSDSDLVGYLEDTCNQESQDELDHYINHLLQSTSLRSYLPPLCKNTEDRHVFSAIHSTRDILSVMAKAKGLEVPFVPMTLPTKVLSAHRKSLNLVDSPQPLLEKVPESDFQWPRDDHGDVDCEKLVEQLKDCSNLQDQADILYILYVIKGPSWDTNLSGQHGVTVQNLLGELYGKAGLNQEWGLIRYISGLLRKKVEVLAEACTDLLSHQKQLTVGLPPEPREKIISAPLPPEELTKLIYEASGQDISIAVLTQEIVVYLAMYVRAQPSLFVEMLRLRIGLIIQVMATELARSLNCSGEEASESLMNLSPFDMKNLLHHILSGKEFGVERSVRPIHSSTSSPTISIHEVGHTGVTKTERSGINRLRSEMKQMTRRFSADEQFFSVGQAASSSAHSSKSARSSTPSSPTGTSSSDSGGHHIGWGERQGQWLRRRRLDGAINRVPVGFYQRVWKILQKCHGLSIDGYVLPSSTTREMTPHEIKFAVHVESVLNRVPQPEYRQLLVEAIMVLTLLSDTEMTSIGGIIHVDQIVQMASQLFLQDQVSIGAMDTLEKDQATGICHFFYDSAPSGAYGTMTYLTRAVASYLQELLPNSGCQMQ
TGF-beta receptor type-1 (Homo sapiens), sequence (P36897 whole entry): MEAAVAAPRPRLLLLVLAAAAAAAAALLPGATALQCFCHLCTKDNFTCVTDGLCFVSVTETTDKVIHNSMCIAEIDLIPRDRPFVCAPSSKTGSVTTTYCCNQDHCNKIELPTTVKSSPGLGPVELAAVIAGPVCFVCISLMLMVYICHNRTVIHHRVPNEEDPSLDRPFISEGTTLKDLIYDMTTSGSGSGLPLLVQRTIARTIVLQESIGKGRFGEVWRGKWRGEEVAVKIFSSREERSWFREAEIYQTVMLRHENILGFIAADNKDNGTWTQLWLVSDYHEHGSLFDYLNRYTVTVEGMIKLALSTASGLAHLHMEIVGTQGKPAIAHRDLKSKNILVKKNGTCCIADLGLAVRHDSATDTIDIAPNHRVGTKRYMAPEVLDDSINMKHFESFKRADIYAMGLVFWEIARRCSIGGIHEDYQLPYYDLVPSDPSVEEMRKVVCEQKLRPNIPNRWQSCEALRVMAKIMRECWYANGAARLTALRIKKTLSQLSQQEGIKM
Cyclin-dependent kinase 9 (Homo sapiens), sequence (P50750 whole entry): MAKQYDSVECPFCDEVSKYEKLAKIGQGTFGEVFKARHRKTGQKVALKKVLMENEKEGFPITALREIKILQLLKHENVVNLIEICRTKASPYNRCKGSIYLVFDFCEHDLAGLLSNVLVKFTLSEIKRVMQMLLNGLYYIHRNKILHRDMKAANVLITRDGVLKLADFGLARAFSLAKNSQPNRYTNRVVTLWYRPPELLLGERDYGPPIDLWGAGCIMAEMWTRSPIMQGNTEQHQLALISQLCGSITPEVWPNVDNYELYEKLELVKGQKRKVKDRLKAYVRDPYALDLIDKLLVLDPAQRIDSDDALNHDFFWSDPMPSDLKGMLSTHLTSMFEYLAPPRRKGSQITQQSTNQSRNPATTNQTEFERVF
Calcium/calmodulin-dependent protein kinase kinase 1 (Homo sapiens), sequence (Q8N5S9 whole entry, looked up): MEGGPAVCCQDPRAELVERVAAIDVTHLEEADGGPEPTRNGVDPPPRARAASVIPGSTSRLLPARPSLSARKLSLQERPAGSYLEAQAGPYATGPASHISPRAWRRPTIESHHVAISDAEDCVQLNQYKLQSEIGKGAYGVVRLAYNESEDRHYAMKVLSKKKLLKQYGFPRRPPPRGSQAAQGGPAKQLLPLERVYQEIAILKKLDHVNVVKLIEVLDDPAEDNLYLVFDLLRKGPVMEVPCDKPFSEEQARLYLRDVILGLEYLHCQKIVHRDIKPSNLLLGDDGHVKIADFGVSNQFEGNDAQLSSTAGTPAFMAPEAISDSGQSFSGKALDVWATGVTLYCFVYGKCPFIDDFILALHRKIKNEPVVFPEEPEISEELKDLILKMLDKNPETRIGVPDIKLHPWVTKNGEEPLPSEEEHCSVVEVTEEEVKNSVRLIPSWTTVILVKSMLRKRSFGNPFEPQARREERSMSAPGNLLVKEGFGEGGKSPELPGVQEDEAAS
Phosphatidylinositol 5-phosphate 4-kinase type-2 gamma (Homo sapiens), sequence (Q8TBX8 whole entry): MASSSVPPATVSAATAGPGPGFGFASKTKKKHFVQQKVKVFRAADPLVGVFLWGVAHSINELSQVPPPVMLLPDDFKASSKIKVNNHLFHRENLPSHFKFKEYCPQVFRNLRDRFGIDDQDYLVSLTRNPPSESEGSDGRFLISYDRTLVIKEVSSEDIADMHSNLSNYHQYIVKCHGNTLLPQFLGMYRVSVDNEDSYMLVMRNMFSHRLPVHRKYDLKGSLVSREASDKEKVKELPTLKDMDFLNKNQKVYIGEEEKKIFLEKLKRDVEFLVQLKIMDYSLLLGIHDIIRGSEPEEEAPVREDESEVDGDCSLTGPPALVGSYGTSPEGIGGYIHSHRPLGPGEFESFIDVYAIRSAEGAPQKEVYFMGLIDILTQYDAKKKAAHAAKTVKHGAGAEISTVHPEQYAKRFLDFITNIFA
Phosphatidylinositol 4-kinase beta (Homo sapiens), sequence (Q9UBF8 2-816 limits assumed): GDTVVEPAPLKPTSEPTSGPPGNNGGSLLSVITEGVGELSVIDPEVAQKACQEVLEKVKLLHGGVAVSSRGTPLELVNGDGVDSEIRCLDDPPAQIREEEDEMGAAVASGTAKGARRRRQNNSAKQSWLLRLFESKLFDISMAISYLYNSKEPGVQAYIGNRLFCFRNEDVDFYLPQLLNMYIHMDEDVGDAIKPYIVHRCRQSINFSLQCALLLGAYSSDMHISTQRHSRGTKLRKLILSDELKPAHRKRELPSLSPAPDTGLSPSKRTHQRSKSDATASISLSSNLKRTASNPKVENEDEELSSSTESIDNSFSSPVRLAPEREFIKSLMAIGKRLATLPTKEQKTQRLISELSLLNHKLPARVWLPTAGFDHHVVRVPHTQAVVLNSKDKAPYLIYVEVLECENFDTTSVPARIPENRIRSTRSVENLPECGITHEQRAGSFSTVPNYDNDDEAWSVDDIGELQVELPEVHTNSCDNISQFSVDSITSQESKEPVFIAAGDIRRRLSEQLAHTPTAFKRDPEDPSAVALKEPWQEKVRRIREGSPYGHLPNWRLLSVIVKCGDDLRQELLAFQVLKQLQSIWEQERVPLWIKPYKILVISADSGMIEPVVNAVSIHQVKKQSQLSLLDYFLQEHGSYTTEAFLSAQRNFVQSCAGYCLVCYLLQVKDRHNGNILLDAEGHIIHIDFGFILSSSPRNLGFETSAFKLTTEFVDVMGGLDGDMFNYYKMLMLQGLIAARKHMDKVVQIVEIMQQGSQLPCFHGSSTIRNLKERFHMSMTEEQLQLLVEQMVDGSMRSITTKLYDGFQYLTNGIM

`CS(=O)(=O)N1CCCC(NC(=O)[C@H](CCC2CCCCC2)NC(=O)c2ccc(CNc3ncnc4c3nnn4-c3ccccc3)cc2)C1` (stereo not given in full) [SR-301] was tested, and the residual activity [1] was 76%, the residual activity [2] was 100% and the residual activity [3] was 87%. The residual activity [4] was 87%, the residual activity [5] was 100% and the residual activity [6] was 100%. The residual activity [7] was 100%, the residual activity [8] was 89% and the residual activity [9] was 100%. The residual activity [10] was 100%, the residual activity [11] was 81% and the residual activity [12] was 100%. It also gave a residual activity [13] of 86%, a residual activity [14] of 87% and a residual activity [15] of 94%. It also gave a residual activity [16] of 97%, a residual activity [17] of 100% and a residual activity [18] of 45%. For the same compound, the residual activity [19] was 92%, the residual activity [20] was 87% and the residual activity [21] was 73%. It also gave a residual activity [22] of 100%, a residual activity [23] of 94% and a residual activity [24] of 89%. The residual activity [25] was 88%, the residual activity [26] was 94% and the residual activity [27] was 100%. The residual activity [28] was 86%, the residual activity [29] was 94% and the residual activity [30] was 100%. It also gave a residual activity [31] of 100%, a residual activity [32] of 100% and a residual activity [33] of 100%. For the same compound, the residual activity [34] was 100%, the residual activity [35] was 100% and the residual activity [36] was 99%. The residual activity [37] was 71%, the residual activity [38] was 100% and the residual activity [39] was 100%. It also gave a residual activity [40] of 96%, a residual activity [41] of 100% and a residual activity [42] of 100%. The residual activity [43] was 81%, the residual activity [44] was 100% and the residual activity [45] was 90%.
For `CS(=O)(=O)N1CCCC(NC(=O)[C@H](CCC2CCCCC2)NC(=O)c2ccc(CNC(=O)c3cnc4ccccn34)cc2)C1` (stereo not given in full) [SR-302], the residual activity [1] was 81%, the residual activity [2] was 100% and the residual activity [3] was 100%. For the same compound, the residual activity [4] was 86%, the residual activity [5] was 98% and the residual activity [6] was 94%. It also gave a residual activity [7] of 99%, a residual activity [8] of 61% and a residual activity [9] of 100%. It also gave a residual activity [10] of 100%, a residual activity [11] of 90% and a residual activity [12] of 100%. It also gave a residual activity [13] of 100%, a residual activity [14] of 100% and a residual activity [15] of 100%. For the same compound, the residual activity [16] was 93%, the residual activity [17] was 100% and the residual activity [18] was 100%. It also gave a residual activity [19] of 88%, a residual activity [20] of 74% and a residual activity [21] of 100%. For the same compound, the residual activity [22] was 37%, the residual activity [23] was 100% and the residual activity [24] was 79%. For the same compound, the residual activity [25] was 84%, the residual activity [26] was 88% and the residual activity [27] was 100%. For the same compound, the residual activity [28] was 100%, the residual activity [29] was 100% and the residual activity [30] was 91%. For the same compound, the residual activity [31] was 98%, the residual activity [32] was 74% and the residual activity [33] was 100%. For the same compound, the residual activity [34] was 100%, the residual activity [35] was 65% and the residual activity [36] was 100%. The residual activity [37] was 100%, the residual activity [38] was 100% and the residual activity [39] was 84%. It also gave a residual activity [40] of 100%, a residual activity [41] of 100% and a residual activity [42] of 100%. The residual activity [43] was 100%, the residual activity [44] was 93% and the residual activity [45] was 100%.
